Common to all, as to format: cell-based
In one experiment the target is T1, human TLR7 (Homo sapiens, UniProt Q9NYK1).
T1 construct: host or cells: HEK-Blue cells
T1 sequence (Q9NYK1 27-1049): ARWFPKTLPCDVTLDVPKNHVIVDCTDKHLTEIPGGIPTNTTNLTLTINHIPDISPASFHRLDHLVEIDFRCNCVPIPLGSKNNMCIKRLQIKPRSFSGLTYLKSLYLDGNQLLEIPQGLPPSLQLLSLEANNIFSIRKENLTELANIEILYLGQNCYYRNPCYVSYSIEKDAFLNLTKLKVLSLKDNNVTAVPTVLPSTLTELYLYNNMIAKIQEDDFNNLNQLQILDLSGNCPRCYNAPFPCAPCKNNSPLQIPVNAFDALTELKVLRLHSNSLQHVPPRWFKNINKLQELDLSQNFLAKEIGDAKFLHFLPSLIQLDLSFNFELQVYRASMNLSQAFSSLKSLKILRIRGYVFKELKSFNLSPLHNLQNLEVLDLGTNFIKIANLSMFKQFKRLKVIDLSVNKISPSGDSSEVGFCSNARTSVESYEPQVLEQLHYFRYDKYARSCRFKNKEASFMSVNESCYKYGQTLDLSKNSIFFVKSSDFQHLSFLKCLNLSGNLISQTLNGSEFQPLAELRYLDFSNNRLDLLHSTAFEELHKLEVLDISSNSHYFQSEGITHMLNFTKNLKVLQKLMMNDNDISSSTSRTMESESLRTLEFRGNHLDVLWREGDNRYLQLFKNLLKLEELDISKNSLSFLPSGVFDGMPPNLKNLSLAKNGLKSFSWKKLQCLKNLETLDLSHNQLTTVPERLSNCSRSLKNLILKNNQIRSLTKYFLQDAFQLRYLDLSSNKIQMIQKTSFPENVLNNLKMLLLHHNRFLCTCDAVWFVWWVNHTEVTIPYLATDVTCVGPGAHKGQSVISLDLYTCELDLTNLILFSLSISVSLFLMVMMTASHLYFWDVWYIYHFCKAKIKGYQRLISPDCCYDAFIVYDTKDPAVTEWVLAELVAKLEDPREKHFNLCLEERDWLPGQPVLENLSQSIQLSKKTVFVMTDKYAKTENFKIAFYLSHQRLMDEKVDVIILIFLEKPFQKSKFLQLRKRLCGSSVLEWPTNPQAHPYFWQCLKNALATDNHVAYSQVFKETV
Put plainly: TLR7 inhibition reporter assay (HEK-Blue cells, SEAP reporter, gardiquimod stimulation). To be noted: HEK-Blue cells overexpressing human TLR7, SEAP reporter, gardiquimod 7.5 μM; read-out: TLR7 IC50. The method, boiled down: (§1)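 Compound treatment: 30 min, RT, 0.05 nM–50 μM final. Agonist: TLR7 gardiquimod 7.5 μM; TLR8 R848 15.9 μM; TLR9 ODN2006 5 nM. Incubation 22 h, 37 °C, 5% CO2. Readout SEAP, HEK-Blue Detection.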
On the technique in general: A reporter such as luciferase makes a cellular process visible.

The target of another experiment is T2, human TLR8 (Homo sapiens, UniProt Q9NR97).
T2 construct: host or cells: HEK-Blue cells
T2 sequence (Q9NR97 27-1041): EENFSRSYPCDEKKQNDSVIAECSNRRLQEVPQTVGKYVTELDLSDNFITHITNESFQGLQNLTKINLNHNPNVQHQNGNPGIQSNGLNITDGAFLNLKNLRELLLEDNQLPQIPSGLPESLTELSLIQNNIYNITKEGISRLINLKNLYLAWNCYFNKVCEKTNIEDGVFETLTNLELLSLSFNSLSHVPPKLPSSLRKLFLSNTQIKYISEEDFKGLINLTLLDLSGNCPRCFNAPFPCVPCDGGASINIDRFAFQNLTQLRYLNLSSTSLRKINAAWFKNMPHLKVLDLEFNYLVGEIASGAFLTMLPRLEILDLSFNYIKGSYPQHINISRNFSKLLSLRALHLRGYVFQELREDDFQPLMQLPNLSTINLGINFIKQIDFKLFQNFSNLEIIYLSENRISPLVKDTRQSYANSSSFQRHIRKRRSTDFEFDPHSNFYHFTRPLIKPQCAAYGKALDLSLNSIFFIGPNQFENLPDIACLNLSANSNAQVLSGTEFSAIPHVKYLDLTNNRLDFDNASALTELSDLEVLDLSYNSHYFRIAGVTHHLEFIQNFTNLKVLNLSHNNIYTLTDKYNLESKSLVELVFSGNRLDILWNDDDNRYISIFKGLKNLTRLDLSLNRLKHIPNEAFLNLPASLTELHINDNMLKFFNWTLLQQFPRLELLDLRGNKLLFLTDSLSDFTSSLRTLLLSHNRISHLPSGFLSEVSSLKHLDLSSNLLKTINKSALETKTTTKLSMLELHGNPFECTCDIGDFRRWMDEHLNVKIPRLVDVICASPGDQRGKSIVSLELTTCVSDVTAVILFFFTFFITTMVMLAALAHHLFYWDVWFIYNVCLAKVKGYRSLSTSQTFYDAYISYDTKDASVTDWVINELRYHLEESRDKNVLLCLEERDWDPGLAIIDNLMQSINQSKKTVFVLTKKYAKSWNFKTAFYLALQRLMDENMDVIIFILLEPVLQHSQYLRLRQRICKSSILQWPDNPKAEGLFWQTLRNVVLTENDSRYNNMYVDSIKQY
The experiment in a line: TLR8 inhibition reporter assay (HEK-Blue cells, SEAP reporter, R848 stimulation). Particulars: HEK-Blue cells overexpressing human TLR8, SEAP reporter, R848 15.9 μM; read-out: TLR8 IC50. Put shortly:
as §1

The target in the next experiment is T3, human TLR9 (Homo sapiens, UniProt Q9NR96).
T3 construct: host or cells: HEK-Blue cells
T3 sequence (Q9NR96 26-1032): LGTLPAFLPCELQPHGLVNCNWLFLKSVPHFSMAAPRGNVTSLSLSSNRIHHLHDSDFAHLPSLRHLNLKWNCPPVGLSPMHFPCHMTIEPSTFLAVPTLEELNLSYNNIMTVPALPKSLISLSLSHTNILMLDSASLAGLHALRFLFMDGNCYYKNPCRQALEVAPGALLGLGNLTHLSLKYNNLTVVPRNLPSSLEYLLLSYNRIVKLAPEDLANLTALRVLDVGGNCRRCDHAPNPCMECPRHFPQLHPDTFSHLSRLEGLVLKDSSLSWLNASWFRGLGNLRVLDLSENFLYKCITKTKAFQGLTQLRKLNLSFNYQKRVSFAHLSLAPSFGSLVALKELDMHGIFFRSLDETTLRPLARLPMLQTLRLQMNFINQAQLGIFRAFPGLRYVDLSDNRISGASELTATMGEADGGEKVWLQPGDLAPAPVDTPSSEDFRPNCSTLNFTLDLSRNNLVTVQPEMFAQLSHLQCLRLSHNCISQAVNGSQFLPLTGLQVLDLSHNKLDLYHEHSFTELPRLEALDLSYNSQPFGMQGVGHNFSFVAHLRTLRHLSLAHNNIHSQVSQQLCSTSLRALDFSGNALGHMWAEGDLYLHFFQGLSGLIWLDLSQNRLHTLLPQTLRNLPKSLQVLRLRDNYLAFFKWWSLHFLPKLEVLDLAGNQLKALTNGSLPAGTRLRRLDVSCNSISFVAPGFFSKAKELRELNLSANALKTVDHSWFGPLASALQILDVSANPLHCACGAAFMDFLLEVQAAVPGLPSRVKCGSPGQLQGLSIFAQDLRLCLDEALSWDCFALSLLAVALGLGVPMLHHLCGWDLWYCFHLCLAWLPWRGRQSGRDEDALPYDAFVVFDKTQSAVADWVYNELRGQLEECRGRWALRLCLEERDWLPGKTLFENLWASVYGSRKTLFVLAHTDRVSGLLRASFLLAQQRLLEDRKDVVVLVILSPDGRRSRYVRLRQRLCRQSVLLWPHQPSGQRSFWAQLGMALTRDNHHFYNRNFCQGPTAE
Put plainly: TLR9 inhibition reporter assay (HEK-Blue cells, SEAP reporter, ODN2006 stimulation). Particulars: HEK-Blue cells overexpressing human TLR9, SEAP reporter, ODN2006 5 nM. The method, boiled down:
as §1

Some results are limits rather than exact numbers.

In the case of `CNC(=O)CN1CCC(c2nc3c(C(C)C)c(-c4cc(OC)c5ncnn5c4)[nH]c3s2)CC1` [Example 8, 2-(4-(6-isopropyl-5-(8-methoxy-[1,2,4]triazolo[1,5-a]pyridin-6-yl)-4H-pyrrolo[3,2-d]thiazol-2-yl)piperidin-1-yl)-N-methylacetamide], the 50% inhibitory concentration (IC50) was found to be 2.47 nM on human TLR7, 5.42 nM on human TLR8 and 30900 nM on human TLR9.
As to `CC(C)c1c(-c2cn(C)c3ncccc23)[nH]c2sc(C3CCN(C(C)C)CC3)nc12` [Example 36, 6-isopropyl-2-(1-isopropylpiperidin-4-yl)-5-(1-methyl-1H-pyrrolo[2,3-b]pyridin-3-yl)-4H-pyrrolo[3,2-d]thiazole], the IC50 on human TLR7 came out at 1300 nM; on human TLR8, 1540 nM; against human TLR9, 25200 nM.
For `COc1cc(-c2[nH]c3sc(C4CCC(N(C)C(C)C)CC4)nc3c2C(C)C)cn2ncnc12` (single isomer, unassigned) [Example 89, N-isopropyl-4-(6-isopropyl-5-(8-methoxy-[1,2,4]triazolo[1,5-a]pyridin-6-yl)-4H-pyrrolo[3,2-d]thiazol-2-yl)-N-methylcyclohexan-1-amine] the same measures were 1.48 nM, 18.9 nM and 4100 nM.
In the same order, the values of `CCN(C)C1CCC(c2nc3c(C(C)C)c(-c4cn(C)c(=O)c(C)c4C)[nH]c3s2)CC1` (single isomer, unassigned) [Example 247, 5-(2-(4-(ethyl(methyl)amino)cyclohexyl)-6-isopropyl-4H-pyrrolo[3,2-d]thiazol-5-yl)-1,3,4-trimethylpyridin-2(1H)-one] are 5.87 nM, 4.42 nM and 42500 nM.
`Cc1c(-c2[nH]c3sc(C4CCC(NCC5(S(C)(=O)=O)CC5)CC4)nc3c2C(C)C)cn(C)c(=O)c1C` (single isomer, unassigned) [Example 257, 5-(6-isopropyl-2-(4-(((1-(methylsulfonyl)cyclopropyl)methyl)amino)cyclohexyl)-4H-pyrrolo[3,2-d]thiazol-5-yl)-1,3,4-trimethylpyridin-2(1H)-one]: the IC50 at human TLR7 was determined as 13.6 nM; at human TLR8 it was 0.86 nM; against human TLR9, 34900 nM.
For `Cc1c(-c2[nH]c3sc(N4CCC(N)CC4)nc3c2C(C)C)cn2ncnc2c1C` [Example 299, 1-(5-(7,8-dimethyl-[1,2,4]triazolo[1,5-a]pyridin-6-yl)-6-isopropyl-4H-pyrrolo[3,2-d]thiazol-2-yl)piperidin-4-amine] the same measures were 1.42 nM, 0.72 nM and 12700 nM.
In the same order, the values of `COc1cc(-c2[nH]c3sc(C4CCN(C(=O)CN(C)C)CC4)nc3c2C(C)C)cn2ncnc12` [Example 6, 2-(dimethylamino)-1-(4-(6-isopropyl-5-(8-methoxy-[1,2,4]triazolo[1,5-a]pyridin-6-yl)-4H-pyrrolo[3,2-d]thiazol-2-yl)piperidin-1-yl)ethan-1-one] are 2.05 nM, 20.9 nM and 1100 nM.
In the same order, the values of `Cc1c(-c2[nH]c3sc(N4CCN(C(C)C)CC4)nc3c2C(C)C)cn2ncnc2c1C` [Example 288, 5-(7,8-dimethyl-[1,2,4]triazolo[1,5-a]pyridin-6-yl)-6-isopropyl-2-(4-isopropylpiperazin-1-yl)-4H-pyrrolo[3,2-d]thiazole] are 15.2 nM, 0.52 nM and 14200 nM.
For `CC(C)c1c(-c2cn(C)c3ncccc23)[nH]c2sc(C3CCC(NCC4(C)COC4)CC3)nc12` (single isomer, unassigned) [Example 173, 4-(6-isopropyl-5-(1-methyl-1H-pyrrolo[2,3-b]pyridin-3-yl)-4H-pyrrolo[3,2-d]thiazol-2-yl)-N-((3-methyloxetan-3-yl)methyl)cyclohexan-1-amine], the IC50 worked out at 8.56 nM on human TLR7, 7.58 nM on human TLR8 and 7790 nM against human TLR9.
In the same order, the values of `Cc1c(-c2[nH]c3sc(C4CCC(N5CCNC(=O)C5)CC4)nc3c2C(C)C)cn(C)c(=O)c1C` (single isomer, unassigned) [Example 260, 4-(4-(6-isopropyl-5-(1,4,5-trimethyl-6-oxo-1,6-dihydropyridin-3-yl)-4H-pyrrolo[3,2-d]thiazol-2-yl)cyclohexyl)piperazin-2-one] are 170 nM, 138 nM and > 50000 nM.
In the same order, the values of `COc1cc(-c2[nH]c3sc(C4CCC(NC5(C)COC5)CC4)nc3c2C(C)C)cn2ncnc12` (single isomer, unassigned) [Example 70, N-(4-(6-isopropyl-5-(8-methoxy-[1,2,4]triazolo[1,5-a]pyridin-6-yl)-4H-pyrrolo[3,2-d]thiazol-2-yl)cyclohexyl)-3-methyloxetan-3-amine] are 0.58 nM, 1.46 nM and 6610 nM.

By IC50 is commonly meant the point on the concentration scale where inhibition reaches its midpoint.

(Values after patent US20230139171A1 (SITA Information Networking Computing UK Limited, priority 2019, published 2023).)
